Results: paper PMC6085350, “Small molecule inhibitors of RAS-effector protein interactions derived using an intracellular antibody fragment” (Nature Communications, 2018)

Key:
KRAS^G12V-GppNHp = target: T1, KRAS^G12V-GppNHp (Homo sapiens, UniProt P01116, G12V); experiment: waterLOGSY NMR binding
T1 construct: made in house; host or cells: E. coli (pGEX-2T; strain named only for the HRAS plasmids)
Method: The waterLOGSY NMR method[35] was used to measure RAS ligand interaction. WaterLOGSY experiments were conducted at a ^1H frequency of 600 MHz using a Bruker Avance spectrometer equipped with a BBI probe. All experiments were conducted at 298 K, 3 mm diameter NMR tubes with a sample final volume of 200 µl was used in all experiments. Solutions were buffered using an H2O 10 mM PBS, 5 mM MgCl2 buffer corrected to pH 7.4. The sample preparation is exemplified as follows, the compound (10 µl of a […] solution in DMSO-d6) was added to an eppendorf before sequential addition of the H2O PBS buffer (163.6 µl), D2O (20 µl), and protein (6.4 µl, 311.8 µM). The resulting solution was spun to ensure full mixing and transferred to a 3 mm NMR tube before running the experiment. For a competition experiment using Y6-scFv or VH, the preparation was carried out in a similar manner; the compound (10 µl of a 10 mM solution in DMSO-d6) was added to an eppendorf before sequential addition of the H2O PBS buffer (146.4 µl), D2O (20 µl), protein (6.4 µl, 311.8 µM) and Y6-ScFv (17.2 µl, 116.6 µM) with a ratio of 5.5:1:1. The resulting solution was spun and transferred to a 3 mm NMR tube before the run. Negative controls (compound alone, without the protein) were prepared in a similar manner, in order to obtain an end volume of 200 μl.
Supplementary Figure 3: Abd-2 WaterLOGSY NMR with and without anti RAS-scFV Abd-2 was analyzed by waterLOGSY. […]
binding of Abd-2 to KRAS -GppNHp (upper trace, in green) but poor binding to KRAS-GDP (middle trace, in red). The proton NMR spectrum of Abd-2 in the absence of protein is […]
shown in the lower trace. Panel b, WaterLOGSY of Abd-2 with KRAS -GppNHp in the presence or absence of scFv competitor respectively top (no binding of Abd-2 to the […]
KRAS -GppNHp + scFv complex) and middle spectra (binding to KRAS -GppNHp without scFv) in purple and red respectively. The lower spectra is the proton NMR of Abd -2 in the absence of protein. Results from panel b confirm the interference of binding by the […]
(1 picture or pasted object on this page, not shown here)
Supplementary Figure 6: Abd-7 Binding in WaterLOGSy and Kd calculations in CPMG WaterLOGSY and CPMG NMR orthogonal analysis of Abd-5 (panel a, b), Abd-6 (c, d), and Abd-7 (e, f) with GST-KRASG12V-GppNHp. For each waterLOGSY profile, the proton NMR spectrum of the compound is shown together the spectra of the compound after incubation with the KRAS (the NOE transfers occurs when the compounds displace those waters upon binding to the protein). The Kd of interaction of the compounds come from fitting a binding curve (right of panels b, d, f) of a CPMG titration (shown on the left of panels b, d, f). The calculated Kd is shown for each compound.
(MW), Kd, Solubility and ligand efficiency (LE). […]

[1] = target: T2, KRAS^G12D interaction with PI3Kα, PI3Kγ, CRAF RBD and RALGDS RA (Homo sapiens, UniProt P01116, G12D); experiment: BRET2 RAS-effector PPI assay, KRAS G12D; type: cell-based; settings: HEK293T, 5, 10 and 20 μM, 20 h
T2 construct: Transfection vector encoded full-length RAS was fused to the donor molecule RLuc8; expressed in transfected cells; host or cells: HEK293T
From the text: Fig. 4 Abd-7 disrupting RAS-effector interactions. HEK293T cells were transfected with different BRET-based RAS biosensor expression vectors to evaluate the inhibition of RAS PPI in cells by compound Abd-7. Transfection vector encoded full-length RAS was fused to the donor molecule RLuc8 and the effectors fused to the acceptor molecule GFP[2]. a Effect of Abd-2 and Abd-7 on KRAS^G12D interaction with PI3Kα, PI3Kγ, CRAF or RALGDS. The BRET signal is plotted as a % of control cells treated with DMSO only and dose response to 5, 10 and 20 μM of each compound. b Effect of Abd-2 and Abd-7 on the BRET signal from interaction of KRAS^G12 mutants (Rluc8-KRAS^G12) and full-length CRAF (GFP[2]-CRAF FL). c, d Effect of Abd-2 and Abd-7 on the interaction of NRAS^Q61H (c) and HRAS^G12V (d) with various RAS effectors domain and with full-length CRAF. The BRET ratio corresponds to the light emitted by the GFP[2] acceptor constructs (515 nm ± 30) upon addition of Coelenterazine 400a divided by the light emitted by the RLuc8 donor constructs (410 nm ± 80). The normalized BRET ratio is the BRET ratio normalized to the DMSO negative and calculated as follows: (BRETcompound/BRETDMSO) x 100, where BRETcompound corresponds to the BRET ratio for the compound-treated cells, BRETDMSO to the DMSO-treated cells. Each experiment was repeated at least three times. […]

SMILES | binding to KRAS^G12V-GppNHp (waterLOGSY) (KRAS^G12V-GppNHp) | effect on BRET signal, KRAS^G12D with PI3Kα, PI3Kγ, CRAF RBD, RALGDS RA [1]
COc1nc(-c2cccc3c2O[C@H](CNC(=O)C2CCOCC2)CO3)ccc1Nc1cccc(CN(C)C)c1 [Abd-6] | confirmed | 
COc1cccc(-c2cccc3c2OC(CNC(=O)c2ccc(OCCN(C)C)cc2)CO3)n1 (stereo not drawn) [Abd-5] | confirmed | 
O=C(NCC1COc2ccccc2O1)c1ccco1 (stereo not drawn) [Abd-2] | preferential binding | no effect
COc1nc(-c2cccc3c2OCCO3)ccc1Nc1ccc(CN(C)C)cc1 [Abd-7] | confirmed | reduces the BRET signal
